Source: US20050112573A1, “Method of detecting toxic substance” (priority 2001, published 2005)

Test system: yeast genes (level of expressed mRNA)
Assay: DNA chip analysis of expressed mRNA of yeast genes after 2 h culture with a toxic chemical substance
Type: cell-based, Saccharomyces cerevisiae S288C
How it was run: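 Values are treated-to-control fluorescence ratios from a whole-yeast-genome DNA chip (65° C, over 12 h hybridization) using Cy3/Cy5-labelled cDNA from mRNA. Log-phase S288C cells in YPD at 25° C were exposed 2 h to a toxicant at sublethal, growth-inhibiting concentration.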

Na2As [(1)]
The level of expressed mRNA in the presence of chemical substance/ (yeast gene YAL053W, ratio to control without chemical): 0.9 | The level of expressed mRNA in the presence of chemical substance/The level of expressed mRNA in the absence of chemical substance (yeast gene YAR010C): 0.8 | The level of expressed mRNA in the presence of chemical substance/The level of expressed mRNA in the absence of chemical substance (yeast gene YBL005W-A): 1.0 | The level of expressed mRNA in the presence of chemical substance/The level of expressed mRNA in the absence of chemical substance (yeast gene YBL041W): 1.2 | The level of expressed mRNA in the presence of chemical substance/The level of expressed mRNA in the absence of chemical substance (yeast gene YBL043W): 1.2 | The level of expressed mRNA in the presence of chemical substance/ (yeast gene YBL048W, ratio to control without chemical substance, 2 h culture): 2.0 | The level of expressed mRNA in the presence of chemical substance/The level of expressed mRNA in the absence of chemical substance (yeast gene YBL078C): 2.3 | The level of expressed mRNA in the presence of chemical substance/ (yeast gene YBL107C, ratio to control without chemical substance, 2 h culture): 1.4 | The level of expressed mRNA in the presence of chemical substance/in the absence of chemical substance (yeast gene YBR036C): 0.8 | The level of expressed mRNA in the presence of chemical substance/The level of expressed mRNA in the absence of chemical substance (yeast gene YBR214W): 0.9 | The level of expressed mRNA in the presence of chemical substance/in the absence of chemical substance (yeast gene YBR298C): 1.1 | The level of expressed mRNA in the presence of chemical substance/The level of expressed mRNA in the absence of chemical substance (yeast gene YCL020W): 1.1 | The level of expressed mRNA in the presence of chemical substance/The level of expressed mRNA in the absence of chemical substance (yeast gene YCL027W): 0.7 | The level of expressed mRNA in the presence of chemical substance/The level of expressed mRNA in the absence of chemical substance (yeast gene YCR004C): 1.7 | The level of expressed mRNA in the presence of chemical substance/The level of expressed mRNA in the absence of chemical substance (yeast gene YCR071C): 1.1 | The level of expressed mRNA in the presence of chemical substance/The level of expressed mRNA in the absence of chemical substance (yeast gene YCR088W): 0.9 | The level of expressed mRNA in the presence of chemical substance/The level of expressed mRNA in the absence of chemical substance (yeast gene YDL008W): 1.1 | The level of expressed mRNA in the presence of chemical substance/ (yeast gene YDL072C, ratio to control without chemical): 1.3 | The level of expressed mRNA in the presence of chemical substance/in the absence of chemical substance (yeast gene YDL078C): 0.7 | The level of expressed mRNA in the presence of chemical substance/ (yeast gene YDL204W, ratio to control without chemical): 1.4 | The level of expressed mRNA in the presence of chemical substance/in the absence of chemical substance (yeast gene YDL215C): 1.0 | The level of expressed mRNA in the presence of chemical substance/ (yeast gene YDL222C, ratio to control without chemical): 0.9 | The level of expressed mRNA in the presence of chemical substance/The level of expressed mRNA in the absence of chemical substance (yeast gene YDL238C): 0.7 | The level of expressed mRNA in the presence of chemical substance/The level of expressed mRNA in the absence of chemical substance (yeast gene YDR055W): 1.7 | The level of expressed mRNA in the presence of chemical substance/The level of expressed mRNA in the absence of chemical substance (yeast gene YDR084C): 0.9 | The level of expressed mRNA in the presence of chemical substance/The level of expressed mRNA in the absence of chemical substance (yeast gene YDR085C): 1.9 | The level of expressed mRNA in the presence of chemical substance/The level of expressed mRNA in the absence of chemical substance (yeast gene YDR104C): 0.8 | The level of expressed mRNA in the presence of chemical substance/The level of expressed mRNA in the absence of chemical substance (yeast gene YDR115W): 1.3 | The level of expressed mRNA in the presence of chemical substance/The level of expressed mRNA in the absence of chemical substance (yeast gene YDR259C): 1.4 | The level of expressed mRNA in the presence of chemical substance/in the absence of chemical substance (yeast gene YDR297W): 1.5 | The level of expressed mRNA in the presence of chemical substance/The level of expressed mRNA in the absence of chemical substance (yeast gene YDR315C): 1.0 | The level of expressed mRNA in the presence of chemical substance/ (yeast gene YDR330W, ratio to control without chemical substance, 2 h culture): 0.8 | The level of expressed mRNA in the presence of chemical substance/The level of expressed mRNA in the absence of chemical substance (yeast gene YDR358W): 0.7 | The level of expressed mRNA in the presence of chemical substance/in the absence of chemical substance (yeast gene YDR387C): 0.8 | The level of expressed mRNA in the presence of chemical substance/The level of expressed mRNA in the absence of chemical substance (yeast gene YDR388W): 0.7 | The level of expressed mRNA in the presence of chemical substance/ (yeast gene YDR411C, ratio to control without chemical substance, 2 h culture): 0.9 | The level of expressed mRNA in the presence of chemical substance/The level of expressed mRNA in the absence of chemical substance (yeast gene YDR432W): 0.5 | The level of expressed mRNA in the presence of chemical substance/The level of expressed mRNA in the absence of chemical substance (yeast gene YDR481C): 0.7 | The level of expressed mRNA in the presence of chemical substance/The level of expressed mRNA in the absence of chemical substance (yeast gene YDR510W): 1.0 | The level of expressed mRNA in the presence of chemical substance/ (yeast gene YDR511W, ratio to control without chemical substance, 2 h culture): 1.3 | The level of expressed mRNA in the presence of chemical substance/ (yeast gene YDR545W, ratio to control without chemical substance, 2 h culture): 0.6 | The level of expressed mRNA in the presence of chemical substance/ (yeast gene YEL001C, ratio to control without chemical): 1.0 | The level of expressed mRNA in the presence of chemical substance/The level of expressed mRNA in the absence of chemical substance (yeast gene YEL042W): 0.6 | The level of expressed mRNA in the presence of chemical substance/The level of expressed mRNA in the absence of chemical substance (yeast gene YEL066W): 2.0 | The level of expressed mRNA in the presence of chemical substance/ (yeast gene YER004W, ratio to control without chemical substance, 2 h culture): 1.0 | The level of expressed mRNA in the presence of chemical substance/ (yeast gene YER035W, ratio to control without chemical substance, 2 h culture): 1.4 | The level of expressed mRNA in the presence of chemical substance/The level of expressed mRNA in the absence of chemical substance (yeast gene YER039C): 1.0 | The level of expressed mRNA in the presence of chemical substance/ (yeast gene YER079W, ratio to control without chemical substance, 2 h culture): 1.1 | The level of expressed mRNA in the presence of chemical substance/ (yeast gene YER106W, ratio to control without chemical): 1.3 | The level of expressed mRNA in the presence of chemical substance/The level of expressed mRNA in the absence of chemical substance (yeast gene YER107C): 0.9 | The level of expressed mRNA in the presence of chemical substance/The level of expressed mRNA in the absence of chemical substance (yeast gene YER130C): 0.9 | The level of expressed mRNA in the presence of chemical substance/ (yeast gene YER158C, ratio to control without chemical substance, 2 h culture): 1.2 | The level of expressed mRNA in the presence of chemical substance/ (yeast gene YER163C, ratio to control without chemical substance, 2 h culture): 1.1 | The level of expressed mRNA in the presence of chemical substance/ (yeast gene YER175C, ratio to control without chemical substance, 2 h culture): 0.9 | The level of expressed mRNA in the presence of chemical substance/ (yeast gene YFL006W, ratio to control without chemical substance, 2 h culture): 0.8
